Measurements reported in ChEMBL document CHEMBL1201862, “PubChem BioAssay data set” (2004).
The source made the active and inactive calls.

How the values were obtained:
[1] = insulin promoter down-regulators in MIN6 cells, imaging, high-content screening, mouse beta cells (AID 1628); assay type: functional
[2] = cytotoxicity in MIN6 insulinoma cells, dose response, cytotoxicity control, cell-based, mouse insulinoma (AID 2122); assay type: functional;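 further: confirmatory high-throughput counterscreen run to flag cytotoxic compounds; mouse MIN-6 beta cells carrying an insulin promoter eGFP reporter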
Protein Wnt-3a = Protein Wnt-3a (Mus musculus, UniProt P27467); experiment: Wnt3a-driven reporter signaling inhibition, dose response, selectivity assay for Gli-SUFU antagonist project, Wnt-LIGHT cells, luminescence (AID 651570); assay type: functional; conditions: read-out: IC50_Mean;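 further: Wnt-LIGHT reporter cells stimulated with conditioned medium from Wnt3a-producing cells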
[3] = microbe, parasite or virus in culture; assay type: functional; conditions: Mycobacterium tuberculosis
Exodeoxyribonuclease V = Exodeoxyribonuclease V (Escherichia coli (strain K12), UniProt P04993+P07648+P08394); experiment: E. coli RecBCD inhibitors, dose response, counter-screen for AddAB inhibitor project, absorbance, V66 E. coli, mutant T4 phage (AID 492957); assay type: functional, cell-based, Escherichia coli str. K-12 substr. MG1655
[4] = Luminescence Cell-Based Dose Retest to Confirm Inhibitors of Cancer Stem Cells. [Related pubchem assays (depositor defined):AID2717, AID2721]; assay type: functional; conditions: Homo sapiens
[5] = Counterscreen for AddAB inhibitors: absorbance-based bacterial cell-based high throughput dose response assay for inhibitors of bacterial viability. [Related pubchem assays (depositor defined):AID435030, AID449728, AID449731, AID488942, AID488955, AID488956]; assay type: functional
[6] = target: Lysine-specific demethylase 4C (Homo sapiens, UniProt Q9H3R0); experiment: GASC-1 (JMJD2C) histone demethylase inhibitors, dose response, biochemical, DELFIA europium, cherry-picked samples (AID 488835); assay type: functional
Mu-type opioid receptor [7] = target: T1, Mu-type opioid receptor (Homo sapiens, UniProt P35372); experiment: MOR agonists by imaging, SAR follow-up, image-based (AID 2352); assay type: functional
[8] = target: T2, Delta-type opioid receptor (Homo sapiens, UniProt P41143); experiment: DOR agonists, SAR follow-up, image-based (AID 2370); assay type: functional
[9] = target: T3, Kappa-type opioid receptor (Homo sapiens, UniProt P41145); experiment: KOR antagonists by imaging, SAR follow-up, image-based (AID 2348); assay type: functional
Mu-type opioid receptor [10] = target: T1, Mu-type opioid receptor; experiment: MOR antagonists, SAR follow-up, image-based (AID 2420); assay type: functional;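 further: compounds added before stimulation of receptor with agonist DAMGO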
[11] = target: T3, Kappa-type opioid receptor; experiment: KOR agonist analogs, imaging readout, SAR follow-up, image-based (AID 2359); assay type: functional
[12] = target: T2, Delta-type opioid receptor; experiment: DOR antagonists, SAR follow-up, image-based (AID 2357); assay type: functional
[13] = target: T3, Kappa-type opioid receptor; experiment: kappa opioid receptor blockers, cell-based, luminescence, beta-arrestin, SAR follow-up (AID 2285); assay type: functional
[14] = target: G-protein coupled receptor 55 (Homo sapiens, UniProt Q9Y2T6); experiment: GPR55 antagonists, SAR follow-up, counter-screen for GPR35 antagonist project, imaging, image-based (AID 2397); assay type: functional
[15] = target: Voltage-dependent T-type calcium channel subunit alpha-1H (Homo sapiens, UniProt O95180); experiment: Cav3.2 T-type channel blockers, cell-based, SynthLib3 library, HEK293 Cav3.2, fluorescence (AID 493041); assay type: functional
[16] = HEp-2 cell cytotoxicity, dose response, cytotoxicity control for RSV inhibitor project, HTS (AID 2410); assay type: functional; conditions: human respiratory syncytial virus
[17] = target: Intestinal-type alkaline phosphatase (Mus musculus, UniProt P24822); experiment: PubChem AID 488785; assay type: functional
[18] = target: T4, Alkaline phosphatase, tissue-nonspecific isozyme (Homo sapiens, UniProt P05186); experiment: TNAP enzyme inhibition by screening hits, dose response, selectivity assay for mouse IAP inhibitor project, biochemical, human TNAP, uHTS hits (AID 488906); assay type: functional
T4 sequence (P05186 whole entry): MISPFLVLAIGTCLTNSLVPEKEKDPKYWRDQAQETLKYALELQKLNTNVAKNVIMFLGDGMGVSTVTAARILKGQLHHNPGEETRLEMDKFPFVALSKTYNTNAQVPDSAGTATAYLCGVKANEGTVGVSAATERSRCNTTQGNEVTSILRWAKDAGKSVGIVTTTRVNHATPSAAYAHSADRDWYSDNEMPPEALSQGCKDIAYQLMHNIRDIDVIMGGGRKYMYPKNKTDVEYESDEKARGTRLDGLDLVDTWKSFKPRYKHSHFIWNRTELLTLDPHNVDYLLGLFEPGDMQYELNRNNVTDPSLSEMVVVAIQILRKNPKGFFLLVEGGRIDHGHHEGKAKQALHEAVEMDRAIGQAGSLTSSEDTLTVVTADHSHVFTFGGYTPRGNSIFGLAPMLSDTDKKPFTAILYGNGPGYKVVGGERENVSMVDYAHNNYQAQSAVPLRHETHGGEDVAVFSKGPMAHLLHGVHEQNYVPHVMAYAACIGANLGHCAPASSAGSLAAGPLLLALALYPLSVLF

[19] = target: Intestinal-type alkaline phosphatase (Homo sapiens, UniProt P09923); experiment: inhibition of human intestinal alkaline phosphatase – biochemical, dose response (AID 488876); assay type: functional
Vero = Vero cell cytotoxicity, cytotoxicity control for flavivirus capping enzyme inhibitors (AID 588742); assay type: functional; conditions: Chlorocebus sabaeus
cells [20] = assay type: functional, cell-based
[21] = target: T5, Trace amine-associated receptor 1 (Homo sapiens, UniProt Q96RJ0); experiment: Fluorescence-based cell-based high throughput dose response assay to identify agonists of the human trace amine associated receptor 1 (TAAR1).; assay type: functional
T5 sequence (Q96RJ0 whole entry): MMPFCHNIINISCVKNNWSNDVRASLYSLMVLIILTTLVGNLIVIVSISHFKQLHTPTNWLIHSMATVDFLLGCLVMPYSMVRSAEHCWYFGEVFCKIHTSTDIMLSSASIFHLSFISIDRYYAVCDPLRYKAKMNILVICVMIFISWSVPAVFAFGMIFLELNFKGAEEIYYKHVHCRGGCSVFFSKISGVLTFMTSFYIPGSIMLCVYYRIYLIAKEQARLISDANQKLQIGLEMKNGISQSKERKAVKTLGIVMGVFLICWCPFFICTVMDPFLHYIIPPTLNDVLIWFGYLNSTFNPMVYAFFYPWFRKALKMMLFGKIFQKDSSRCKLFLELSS

[22] = target: T5, Trace amine-associated receptor 1; experiment: Counterscreen for agonists of the human trace amine associated receptor 1 (hTAAR1): Fluorescence-based cell-based high throughput dose response assay to identify hTAAR1 agonist that also desensitize TAAR1 receptor response.; assay type: functional
cells [23] = assay type: functional, cell-based; remark: listed apart in the source
Caspase-6 = Caspase-6 (Homo sapiens, UniProt P55212); experiment: human caspase-6 inhibitors, dose response, biochemical, VEID-R110 fluorescence, cherry-pick (AID 720632)
[24] = target: T6, Histone-lysine N-methyltransferase NSD2 (Homo sapiens, UniProt O96028); assay type: biochemical
T6 sequence (O96028 whole entry): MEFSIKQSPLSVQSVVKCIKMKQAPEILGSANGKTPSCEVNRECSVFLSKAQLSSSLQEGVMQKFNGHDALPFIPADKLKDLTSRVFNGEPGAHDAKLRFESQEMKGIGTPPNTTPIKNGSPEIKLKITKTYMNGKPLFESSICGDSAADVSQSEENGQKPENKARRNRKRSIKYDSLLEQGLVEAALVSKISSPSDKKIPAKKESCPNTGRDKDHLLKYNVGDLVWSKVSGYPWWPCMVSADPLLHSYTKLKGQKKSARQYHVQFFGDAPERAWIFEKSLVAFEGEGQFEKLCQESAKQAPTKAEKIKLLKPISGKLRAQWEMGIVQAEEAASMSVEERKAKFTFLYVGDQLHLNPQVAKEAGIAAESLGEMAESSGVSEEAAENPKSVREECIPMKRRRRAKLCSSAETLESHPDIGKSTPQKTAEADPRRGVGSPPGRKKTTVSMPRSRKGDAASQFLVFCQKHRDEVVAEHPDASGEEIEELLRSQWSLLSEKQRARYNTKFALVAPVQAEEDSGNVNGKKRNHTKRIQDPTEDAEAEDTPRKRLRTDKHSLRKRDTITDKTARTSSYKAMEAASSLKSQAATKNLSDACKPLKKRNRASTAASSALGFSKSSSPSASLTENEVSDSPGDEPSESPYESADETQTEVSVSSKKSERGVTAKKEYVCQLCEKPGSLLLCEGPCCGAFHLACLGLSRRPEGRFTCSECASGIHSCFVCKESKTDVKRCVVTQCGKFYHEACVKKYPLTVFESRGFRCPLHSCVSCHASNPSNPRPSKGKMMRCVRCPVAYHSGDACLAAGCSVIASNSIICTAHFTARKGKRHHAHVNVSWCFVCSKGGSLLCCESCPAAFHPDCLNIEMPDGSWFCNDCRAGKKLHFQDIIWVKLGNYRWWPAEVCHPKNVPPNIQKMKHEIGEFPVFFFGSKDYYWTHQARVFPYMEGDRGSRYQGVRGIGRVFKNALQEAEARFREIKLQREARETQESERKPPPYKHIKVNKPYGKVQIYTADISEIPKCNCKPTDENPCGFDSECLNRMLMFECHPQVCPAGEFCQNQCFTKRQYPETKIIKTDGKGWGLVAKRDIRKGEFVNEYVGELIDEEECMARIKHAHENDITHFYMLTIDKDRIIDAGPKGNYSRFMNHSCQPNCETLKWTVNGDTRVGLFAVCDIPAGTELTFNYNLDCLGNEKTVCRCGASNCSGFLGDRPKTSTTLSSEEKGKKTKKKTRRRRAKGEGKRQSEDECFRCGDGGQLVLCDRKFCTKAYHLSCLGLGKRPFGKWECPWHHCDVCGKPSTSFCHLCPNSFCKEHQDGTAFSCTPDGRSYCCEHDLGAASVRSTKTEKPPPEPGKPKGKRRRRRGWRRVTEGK

[25] = THP-1 cell cytotoxicity, dose response, cytotoxicity control for Vif-APOBEC3G degradation inhibitor project, THP-1 cells (AID 1117359); assay type: functional; conditions: Human immunodeficiency virus 1, THP-1

T3 sequence (P41145 whole entry): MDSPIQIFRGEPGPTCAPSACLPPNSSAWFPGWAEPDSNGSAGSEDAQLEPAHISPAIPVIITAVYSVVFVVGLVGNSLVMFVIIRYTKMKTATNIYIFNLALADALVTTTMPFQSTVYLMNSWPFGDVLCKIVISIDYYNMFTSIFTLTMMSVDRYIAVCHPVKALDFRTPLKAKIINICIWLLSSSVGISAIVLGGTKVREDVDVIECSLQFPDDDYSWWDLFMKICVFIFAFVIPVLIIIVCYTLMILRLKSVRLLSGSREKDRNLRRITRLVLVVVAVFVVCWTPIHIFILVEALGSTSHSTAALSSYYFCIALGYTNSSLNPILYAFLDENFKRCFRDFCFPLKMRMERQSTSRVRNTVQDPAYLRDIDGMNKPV
T1 sequence (P35372 whole entry): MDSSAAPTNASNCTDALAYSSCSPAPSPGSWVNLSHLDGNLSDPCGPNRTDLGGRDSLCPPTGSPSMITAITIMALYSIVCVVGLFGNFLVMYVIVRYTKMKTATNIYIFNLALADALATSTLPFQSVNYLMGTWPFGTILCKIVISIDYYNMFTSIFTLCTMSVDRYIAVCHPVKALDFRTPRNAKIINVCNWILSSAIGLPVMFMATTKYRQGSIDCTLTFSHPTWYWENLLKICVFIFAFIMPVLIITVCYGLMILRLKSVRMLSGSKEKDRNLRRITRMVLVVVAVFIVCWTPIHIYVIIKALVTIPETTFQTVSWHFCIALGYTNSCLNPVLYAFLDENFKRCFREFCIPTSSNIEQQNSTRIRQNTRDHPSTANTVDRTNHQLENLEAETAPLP
T2 sequence (P41143 whole entry): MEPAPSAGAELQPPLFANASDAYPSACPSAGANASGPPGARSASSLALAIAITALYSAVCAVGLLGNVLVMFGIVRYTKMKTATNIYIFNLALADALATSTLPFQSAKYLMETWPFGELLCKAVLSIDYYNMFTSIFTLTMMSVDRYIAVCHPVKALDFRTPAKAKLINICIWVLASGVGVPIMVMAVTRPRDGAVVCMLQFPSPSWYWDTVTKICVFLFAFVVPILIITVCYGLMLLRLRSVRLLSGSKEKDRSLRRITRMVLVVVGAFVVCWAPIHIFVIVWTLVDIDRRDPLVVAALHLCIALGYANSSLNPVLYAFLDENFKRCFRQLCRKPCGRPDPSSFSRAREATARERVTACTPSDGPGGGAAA
Exodeoxyribonuclease V, sequence (P04993 whole entry): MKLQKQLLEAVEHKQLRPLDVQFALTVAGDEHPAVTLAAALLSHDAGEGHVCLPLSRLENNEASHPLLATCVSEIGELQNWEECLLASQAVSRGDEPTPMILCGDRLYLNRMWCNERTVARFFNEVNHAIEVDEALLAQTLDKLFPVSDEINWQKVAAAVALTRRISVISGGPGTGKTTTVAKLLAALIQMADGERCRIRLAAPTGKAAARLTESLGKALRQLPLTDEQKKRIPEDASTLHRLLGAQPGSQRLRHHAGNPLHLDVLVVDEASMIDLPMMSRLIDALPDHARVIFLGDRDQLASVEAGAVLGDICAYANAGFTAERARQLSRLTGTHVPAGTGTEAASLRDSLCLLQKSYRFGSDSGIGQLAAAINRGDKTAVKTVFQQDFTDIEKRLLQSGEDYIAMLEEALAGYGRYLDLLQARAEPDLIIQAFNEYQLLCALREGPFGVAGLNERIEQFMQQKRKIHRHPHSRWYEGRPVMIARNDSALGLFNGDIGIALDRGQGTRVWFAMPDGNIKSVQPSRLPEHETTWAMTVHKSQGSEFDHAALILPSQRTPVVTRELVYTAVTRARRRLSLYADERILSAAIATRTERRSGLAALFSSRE
Exodeoxyribonuclease V, sequence (P07648 whole entry): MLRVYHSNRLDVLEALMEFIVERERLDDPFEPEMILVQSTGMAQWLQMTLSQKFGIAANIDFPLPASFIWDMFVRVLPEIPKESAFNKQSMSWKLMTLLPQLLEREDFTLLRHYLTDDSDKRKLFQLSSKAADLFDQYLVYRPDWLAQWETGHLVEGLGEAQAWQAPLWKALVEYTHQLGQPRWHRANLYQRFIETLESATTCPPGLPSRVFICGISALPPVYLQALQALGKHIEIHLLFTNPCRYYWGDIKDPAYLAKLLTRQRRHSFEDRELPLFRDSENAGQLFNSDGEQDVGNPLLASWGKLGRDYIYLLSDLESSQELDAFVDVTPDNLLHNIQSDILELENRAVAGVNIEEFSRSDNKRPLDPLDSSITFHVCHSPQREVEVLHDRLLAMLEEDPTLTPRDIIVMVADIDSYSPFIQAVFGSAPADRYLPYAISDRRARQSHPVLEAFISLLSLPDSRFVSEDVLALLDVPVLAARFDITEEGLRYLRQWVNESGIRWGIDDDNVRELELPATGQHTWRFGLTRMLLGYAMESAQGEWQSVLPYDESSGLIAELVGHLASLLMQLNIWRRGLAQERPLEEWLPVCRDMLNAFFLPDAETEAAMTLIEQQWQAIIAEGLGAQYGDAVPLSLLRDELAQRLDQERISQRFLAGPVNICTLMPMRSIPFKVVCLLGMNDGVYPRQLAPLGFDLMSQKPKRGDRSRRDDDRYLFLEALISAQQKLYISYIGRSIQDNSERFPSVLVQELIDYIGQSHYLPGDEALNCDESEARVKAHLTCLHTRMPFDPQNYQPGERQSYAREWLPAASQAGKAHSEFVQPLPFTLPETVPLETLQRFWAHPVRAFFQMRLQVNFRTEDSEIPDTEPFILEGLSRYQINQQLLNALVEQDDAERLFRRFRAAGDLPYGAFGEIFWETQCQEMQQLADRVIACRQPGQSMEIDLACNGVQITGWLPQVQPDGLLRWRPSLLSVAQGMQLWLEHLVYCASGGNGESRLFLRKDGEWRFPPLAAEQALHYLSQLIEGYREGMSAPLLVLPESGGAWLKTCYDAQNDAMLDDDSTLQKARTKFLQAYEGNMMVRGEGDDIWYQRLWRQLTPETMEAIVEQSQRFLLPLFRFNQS
Exodeoxyribonuclease V, sequence (P08394 whole entry): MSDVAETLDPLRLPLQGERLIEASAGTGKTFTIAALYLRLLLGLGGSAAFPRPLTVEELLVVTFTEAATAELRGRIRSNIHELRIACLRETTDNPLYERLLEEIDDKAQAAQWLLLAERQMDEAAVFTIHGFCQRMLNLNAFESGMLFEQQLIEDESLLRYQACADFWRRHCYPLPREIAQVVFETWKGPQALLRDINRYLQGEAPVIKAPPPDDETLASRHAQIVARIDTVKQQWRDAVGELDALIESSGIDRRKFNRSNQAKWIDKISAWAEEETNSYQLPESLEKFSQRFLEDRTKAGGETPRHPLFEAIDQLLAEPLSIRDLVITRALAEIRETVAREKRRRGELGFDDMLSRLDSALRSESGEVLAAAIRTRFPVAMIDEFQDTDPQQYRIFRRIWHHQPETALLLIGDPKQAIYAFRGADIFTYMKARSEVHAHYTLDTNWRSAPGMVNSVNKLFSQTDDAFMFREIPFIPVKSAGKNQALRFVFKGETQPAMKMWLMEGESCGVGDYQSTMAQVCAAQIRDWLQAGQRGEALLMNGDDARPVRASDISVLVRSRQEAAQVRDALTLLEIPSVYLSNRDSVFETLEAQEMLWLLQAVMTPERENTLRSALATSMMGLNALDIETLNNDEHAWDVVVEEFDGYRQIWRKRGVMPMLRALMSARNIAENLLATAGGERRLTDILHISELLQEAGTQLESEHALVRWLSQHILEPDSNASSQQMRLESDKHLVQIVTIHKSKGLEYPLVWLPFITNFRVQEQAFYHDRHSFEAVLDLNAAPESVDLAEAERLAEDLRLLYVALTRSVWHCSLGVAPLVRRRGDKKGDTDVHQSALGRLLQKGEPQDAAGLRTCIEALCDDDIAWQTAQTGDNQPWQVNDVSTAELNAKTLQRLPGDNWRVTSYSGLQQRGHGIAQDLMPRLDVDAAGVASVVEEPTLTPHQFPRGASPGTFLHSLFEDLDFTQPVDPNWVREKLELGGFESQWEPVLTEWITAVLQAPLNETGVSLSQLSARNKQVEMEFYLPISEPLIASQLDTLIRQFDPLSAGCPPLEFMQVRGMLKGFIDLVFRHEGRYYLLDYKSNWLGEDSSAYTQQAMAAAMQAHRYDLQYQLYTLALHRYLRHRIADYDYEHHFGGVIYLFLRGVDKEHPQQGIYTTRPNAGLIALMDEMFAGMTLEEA
Intestinal-type alkaline phosphatase (Mus musculus, UniProt P24822), sequence (P24822 whole entry): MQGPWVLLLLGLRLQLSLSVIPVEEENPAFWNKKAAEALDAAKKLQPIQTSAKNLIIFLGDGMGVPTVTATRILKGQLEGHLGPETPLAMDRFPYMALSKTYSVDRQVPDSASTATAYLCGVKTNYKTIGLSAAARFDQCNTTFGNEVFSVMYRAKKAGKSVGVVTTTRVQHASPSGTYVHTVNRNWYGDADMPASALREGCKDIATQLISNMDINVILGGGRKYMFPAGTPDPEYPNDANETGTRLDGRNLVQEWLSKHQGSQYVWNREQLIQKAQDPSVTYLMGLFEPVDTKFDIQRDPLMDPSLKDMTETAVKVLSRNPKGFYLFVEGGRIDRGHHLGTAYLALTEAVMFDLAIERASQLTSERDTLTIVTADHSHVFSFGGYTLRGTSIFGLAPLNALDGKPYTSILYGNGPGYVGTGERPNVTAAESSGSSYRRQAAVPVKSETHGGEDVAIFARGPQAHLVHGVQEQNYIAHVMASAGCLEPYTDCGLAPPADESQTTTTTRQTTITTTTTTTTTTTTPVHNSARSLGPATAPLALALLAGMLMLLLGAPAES
Protein Wnt-3a, sequence (P27467 whole entry): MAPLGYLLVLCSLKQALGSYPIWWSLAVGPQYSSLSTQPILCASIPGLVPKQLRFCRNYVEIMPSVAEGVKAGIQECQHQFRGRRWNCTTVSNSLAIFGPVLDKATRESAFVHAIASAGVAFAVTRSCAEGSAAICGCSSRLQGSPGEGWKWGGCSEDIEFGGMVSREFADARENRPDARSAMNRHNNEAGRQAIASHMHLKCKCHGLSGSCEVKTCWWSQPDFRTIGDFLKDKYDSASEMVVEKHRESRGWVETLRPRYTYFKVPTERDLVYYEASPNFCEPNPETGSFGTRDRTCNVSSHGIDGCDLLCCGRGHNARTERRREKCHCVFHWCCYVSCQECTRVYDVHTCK

With `COc1ccc(NS(=O)(=O)c2ccc(NC(C)=O)cc2)cc1OC` the IC50 [1] was 3.44 µM (active), the IC50 [2] was 2.22 µM (active) and the IC50 (Protein Wnt-3a) was 12 µM (active).
In the case of `O=C(CSc1[nH]cnc2ncnc1-2)c1ccc(Cl)cc1`, the CC50 [3] is reported as > 40 µM (active), the IC50 (Exodeoxyribonuclease V) is reported as > 119 µM (inactive) and the AC50 [4] is reported as 2.81 µM (active). For the same molecule, the IC50 [5] was 61.1 µM (inactive).
For `CS(=O)(=O)N(CC(=O)NCc1ccco1)c1ccccc1Cl`, the AC50 [6] was 18.4 µM (active).
In the case of `CCC(=NNc1ccnc2cc(Cl)ccc12)c1ccc(O)cc1`, the EC50 (Mu-type opioid receptor [7]) is reported as 25.3 µM (inactive), the EC50 [8] is reported as 30.7 µM (inactive) and the IC50 [9] is reported as 3.62 µM (active). For the same molecule, the IC50 (Mu-type opioid receptor [10]) was > 32 µM (inactive), the EC50 [11] was > 32 µM (inactive) and the IC50 [12] was > 32 µM (inactive). For the same molecule, the IC50 [13] was 3.54 µM (active).
In the case of `Cc1ccc(OCCC(=O)NCCc2ccc(S(N)(=O)=O)cc2)cc1`, the IC50 [14] is reported as > 32 µM (inactive).
With `CC(C)Cc1nnc(NC(=O)COc2ccc(F)cc2Cl)o1` the EC50 [15] was 10 µM (active).
In the case of `O=[N+]([O-])c1ccccc1NC(=S)N/N=C/c1ccc(O)c(O)c1`, the CC50 [16] is reported as 11.7 µM (active), the IC50 [17] is reported as 0.216 µM (active) and the IC50 [18] is reported as 1.53 µM (active). The IC50 [19] was > 100 µM (inactive), the CC50 (Vero) was 22.8 µM (active) and the IC50 (cells [20]) was 23.5 µM (inactive). For the same molecule, the EC50 [21] was 4.15 µM (active), the IC50 [22] was 7.2 µM (active) and the EC50 (cells [23]) was > 29.9 µM (inactive). For the same molecule, the AC50 (Caspase-6) was 1.56 µM (active), the AC50 [24] was 1.34 µM (active) and the CC50 [25] was 25.5 µM (active).
